Data on three compounds can be found in patent US20070265341A1, “COMPOSITIONS AND METHODS FOR TREATING EYE DISORDERS AND CONDITIONS” (The Schepens Eye Research Institute Inc., priority 2004, published 2007).

In one assay the test system is C57BL/6 mice. The assay can be described thus: Corneal fluorescein staining (NEI grading), dry eye model (CEC + SQ scopolamine). Type of assay: in vivo, mouse. As for the experimental part: Six to 10 week old C57BL/6 mice (Taconic Farms, German-town, NY) were used. The protocol was approved by the Schepens Eye Research Institute Animal Care and Use Committee, and all animals were treated according to the ARVO Statement for the Use of Animals in Ophthalmic and Vision Research. […] The controlled-environment chamber: a new mouse model of dry eye. […] Louis, Mo.) was injected SQ in the dorsal skin of mice at 9 am, 12 pm, and 3 pm; the overnight dose at 6 pm was increased to 0.75 mg/0.3 ml. The mice were placed in the CEC where they were continuously exposed to a relative humidity (RH) of <30%, airflow of 15 litres/minute and a constant temperature of 21-23° C. as described previously (Barabino et al, 2005). Dry eye was induced for variable lengths of time, ranging from 2-10 days. […] Formulations tested included a) 0.2% alpha-linolenic acid (ALA, n-3); b) 0.2% linoleic acid (LA, n-6); and c) 0.1% ALA: 0.1% LA (1:1 ratio of n3:n6, total amount of fatty acid being same as in individual fatty acid formulations). […] Forty eight hours after dry eye induction, each eye was randomized to receive one of the formulations, or the vehicle. A 1 ul eye drop was applied topically to the eye of unanaesthetized mouse once daily, from 48 hours to day 4 (total 3 doses) or to day 9 (total 8 doses) depending on the time point studied. The untreated group received no eye drops. Ocular signs of dry eye were measured 24 hours after the last dose (day 5 or day 10) following which mice were euthanized for cellular and molecular studies. […] Eyes were flushed by sterile PBS to remove excess fluorescein at 3 minutes, and examined with a slit lamp biomicroscope in cobalt blue light. Punctate staining was recorded in a masked fashion with a standardized (National Eye Institute) grading system of 0 to 3 for each of the five areas in which the corneal surface was divided. […] Kruskal Wallis and Mann Whitney tests (unpaired data set), and Wilcoxin test (paired data set) were used for statistical analysis.

The test system of a further assay is IL-1α. The assay can be described thus: Real time PCR of cytokine transcripts in dry eye cornea and conjunctiva. The class given is in vivo, mouse. An excerpt:
(§1) Corneal and conjunctival expression of pro-inflammatory cytokines IL-1α and TNF-α Th1 cytokines (IL-2 and IFN-γ) and Th2 cytokines (IL-4, IL-6 and IL-10), relative to the normal eyes, was studied using quantitative real time PCR. Total RNA was isolated from the whole mount corneal and conjunctival tissues (two pooled corneas per group and six pooled conjunctivae per group). A combined method of total RNA isolation was employed, using Trizol (Invitrogen, CA, catalog #15596-026) for tissue homogenization on ice, precipitation of RNA in the aqueous phase in 70% ethanol followed by subsequent extraction and purification using RNeasy Microkit (Qiagen, CA, catalogue # 74004). Isolated RNA was stored at −80° C. until future use.
(§2) The first strand cDNA was synthesized from 300 ng of total RNA with random hexamers using SuperScript™ III Reverse Transcriptase (Invitrogen, CA, Catalogue #18080) according to the manufacturer's protocol. Real-time PCR was performed with FAM-MGB dye labeled pre-designed primers (Applied Biosystems, CA) for IL-1-α (catalogue # 4329586), TNF-α (Assay ID Mm99999068_ml) and GAPDH (Assay ID Mm99999915_g1), IL-2 (Assay ID […]), IL-4 (Assay ID Mm00445259), IL-6 (Assay ID Mm00446190_ml), IL-10 (Mm00439616_ml), IFN-γ (Assay ID Mm00801778 ml) according to manufacturer's recommendations. 1 ul of cDNA was loaded in each well and assays were performed in duplicates. A nontemplate control was included in all the experiments to evaluate DNA contamination of the isolated RNA and the reagents used. The results of quantitative real-time PCR were analyzed by the comparative threshold cycle (CT) method and normalized by GAPDH as an internal control. The relative expression of cytokines at different times points was compared using one way ANOVA, post hoc test LSD with p<0.05 deemed significant.
(§3) Six to 10 week old C57BL/6 mice (Taconic Farms, German-town, NY) were used. The protocol was approved by the Schepens Eye Research Institute Animal Care and Use Committee, and all animals were treated according to the ARVO Statement for the Use of Animals in Ophthalmic and Vision Research. Dry eye was induced by placement of mice in a CEC as described above, modified with subcutaneous (“SQ”) administration of scopolamine to lead to maximal ocular dryness (Barabino S, Shen L, Chen L, Rashid S, Rolandao M, Dana M R. The controlled-environment chamber: a new mouse model of dry eye. Invest Opthalmol Vis Sci. 2005; 46: 2766-71). Briefly, 0.5 mg/0.2 ml of scopolamine hydrobromide (Sigma-Aldrich, St. Louis, Mo.) was injected SQ in the dorsal skin of mice at 9 am, 12 pm, and 3 pm; the overnight dose at 6 pm was increased to 0.75 mg/0.3 ml. The mice were placed in the CEC where they were continuously exposed to a relative humidity (RH) of <30%, airflow of 15 litres/minute and a constant temperature of 21-23° C. as described previously (Barabino et al, 2005). Dry eye was induced for variable lengths of time, ranging from 2-10 days. Age-matched mice were used as normal controls (RH>80%, no airflow and temperature 21-23° C., no scopolamine administration).
(§4) Forty eight hours after dry eye induction, each eye was randomized to receive one of the formulations, or the vehicle. A 1 ul eye drop was applied topically to the eye of unanaesthetized mouse once daily, from 48 hours to day 4 (total 3 doses) or to day 9 (total 8 doses) depending on the time point studied. The untreated group received no eye drops. Ocular signs of dry eye were measured 24 hours after the last dose (day 5 or day 10) following which mice were euthanized for cellular and molecular studies.
(In general: In qPCR the cycle at which signal appears reflects the starting amount.)

A further assay relates to TNF-α. The assay is described as above. Type of assay: in vivo, mouse.
Text: as §1, §2, §3, §4

Assay [1] has as its system Balb/c mice. The assay can be described thus: Cotton thread test of tear production, dry eye model (CEC + scopolamine patch). The class given is in vivo, mouse. The note with it: Scop patch alone for 6 days, Day 3 and Day 6. An excerpt: (§5) Normal healthy 6 to 10 weeks old female Balb/c mice (Taconic Farms, German-town, NY) can be induced to have dry eye by continuously exposing them to dry environment in a controlled environmental chamber (CEC), described below. Mice in CEC were continuously exposed throughout the duration of the experiments, to low relative humidity of less than 30% (mean and standard deviation 19%±4%), high airflow (15 liters/minute) and constant temperature (21-23 Celsius). Mice in normal cages were exposed to relative humidity over 70% (mean and SD 78%±5%), no airflow and same temperature. In addition, the mice placed in CEC were also treated with scopolamine, active agent that causes pharmacological inhibition of tear secretion. The combination of CEC and scopolamine produces severe dry eye. […]
Tear production was measured with cotton thread test, impregnated with phenol red (Zone-Quick, Lacrimedics, Eastsound, Wash.). […] The tear distance in mm is read under a microscope (Zeiss S4, West Germany) using the scale of an hemacytometer. Tear secretion was measured in three groups of mice (FIG. 1). […]
(§6) Dry eye was induced by combined environmental and pharmacological effect (placing the mice in CEC and applying scopolamine patch for 6 days). […] Signs of dry eye were assessed at the end of Day 6, twelve hours after the last dose. […] […]

Assay [2] deals with Balb/c mice. The assay can be described thus: Corneal fluorescein staining (NEI grading), dry eye model (CEC + scopolamine patch). The settings on record: scopolamine alone, Day 3 and Day 6. The class given is in vivo, mouse.
Text: as §5, with “secretion.” for “secretion. The combination of CEC and scopolamine produces severe dry eye.”
The cornea was examined with a slit lamp biomicroscope using cobalt blue light 3 minutes after the fluorescein instillation. Punctuate staining was recorded in a masked fashion using a standardized National Eye Institute (NEI) grading system of 0-3 for each of the five areas in which the corneal surface has been divided (FIG. 2). […]
as §6

Like-named read-outs stand apart in the source and are kept apart here.

As to `CCC=CCC=CCC=CCCCCCCCC(=O)O` [ALA, 9, 12, 15 octadecatrienoic acid], in the assay with C57BL/6 mice (day 5, once daily drop from 48 hours), the “decrease in corneal fluorescein staining scores compared to the vehicle” value amounted to 45%. Also, in the assay with C57BL/6 mice (day 10), the “decrease in corneal fluorescein staining scores compared to the vehicle” value turned out to be 62% and the “decrease in corneal fluorescein staining scores compared to untreated control eyes” value came out at 71%. The “conjunctival IL-α expression” value in the assay with IL-1α (conjunctiva, day 10) is given as “downward trend”. Besides, in the assay on IL-1α (cornea, day 10), the “corneal IL-1α expression compared to untreated corneas” value was “significant decrease”. Besides, in the assay with TNF-α (conjunctiva, day 10), the “conjunctival expression of TNF-α compared to untreated eyes” value is reported as “significantly decreased”. In addition, the “corneal TNF-α expression compared to untreated and vehicle-treated corneas” value with TNF-α (cornea, day 5) is recorded as “significant decrease”. Also, the “corneal TNF-α expression” value with TNF-α (cornea, day 10) was “decreased trend”. In addition, in the assay on CD11b+ cells (center of cornea, day 10), the “decrease in CD11b+ cell number compared to the untreated group” value worked out at 42%; the “decrease in CD11b+ cell number compared to the vehicle” value was 37%; the “number of CD11b+ cells compared to untreated, vehicle, LA and combined groups” value is given as “significantly decreased”. Moreover, in the assay with CD11b+ cells (center of whole mount cornea, confocal images), the “number of CD11b+ cells relative to normal (non dry eye induced) cornea” value is on record as “comparable to the normal”. Besides, in the assay on CD11b+ cells (periphery of cornea, day 10), the “CD11b+ cell number compared to untreated eyes” value is given as “significant decrease”, the “CD11b+ cell number compared to vehicle” value was “no significant difference”, the “decrease in CD11b+ cell number compared to the untreated group” value came out at 37% and the “decrease in CD11b+ cell number compared to the vehicle” value stood at 21%.

Regarding `CN1[C@@H]2C[C@@H](OC(=O)[C@H](CO)c3ccccc3)C[C@H]1[C@@H]1O[C@@H]12` [Scop patch, scopolamine], the “tear secretion compared to the baseline” value in the assay with Balb/c mice [1] is “markedly decreased”. Moreover, the “corneal fluorescein staining compared to the controls” value in the assay on Balb/c mice [2] is given as “significant increase”.

For `CCCCC/C=C\C/C=C\CCCCCCCC(=O)O` [LA, 9,12-octadecandienoic acid], in the assay on C57BL/6 mice (day 5), the “corneal fluorescein staining scores compared to vehicle-treated eyes” value is listed as “no significant difference”. For the same compound, in the assay with C57BL/6 mice (day 10), the “corneal fluorescein staining scores compared to vehicle and untreated eyes” value is “no difference”. Further, the “IL-1α expression, between untreated, vehicle and treated eyes” value in the assay with IL-1α (cornea and conjunctiva) is listed as “No significant difference”. Besides, the “TNF-α expression, between untreated, vehicle and treated eyes” value in the assay with TNF-α (cornea and conjunctiva) is recorded as “No significant difference”.
